The test system of experiment [1] is SOCS1+/+ or SOCS1+/− CD4+CD25− T cells. The experiment is described as follows: CD4+ T cell activation (CD25 expressing cells, flow cytometry) after αCD3 stimulation. Format: cell-based, mouse. The following applies: αCD3 + SOCS1-KIR peptide (20 μM), 72 h. The procedure: FIGS. 5A-5D. […] (FIGS. 5A and 5B) SOCS1^+/+ or SOCS1^+/− CD4^+CD25^− T cells were stimulated with αCD3 antibodies alone or with αCD3+SOCS1-KIR peptide (20 μM) for 72 h. (FIG. 5A) CD25 expressing cells were assessed by flow cytometry. Results are representative of 4 independent experiments. (FIG. 5B) Proliferation was assessed by CFSE labeling and flow cytometry, cell counts, and ^3[H] thymidine incorporation. n=4. (FIGS. 5C and 5D) SOCS1^+/+ or SOCS1^+/− CD4^+CD25^− T cells were placed under Th17 inducing conditions in the absence or presence of SOCS1-KIR peptide (20 μM) (FIG. 5C) IFNγ expression, relative to β-actin., was assessed by qPCR (left) and ELISA (right) (n=4). (FIG. 5D) pSTAT1 and STAT1 protein expressions were assessed by western blotting. […]
CD4^+ T cell proliferation was assessed by CFSE staining, ^3H thymidine incorporation, and absolute cell counts. […] After 72 h of incubation, cell cultures were either pulsed with 0.5 mCi ^3H thymidine (GE Healthcare; Arlington Heights, Ill.) or counted and harvested for assessment by flow cytometry. In cultures analyzed by flow cytometry, T lymphocytes were labeled with 10 μg/ml CFSE prior to culture as previously described (Cozzo et al. 2003). ^3H thymidine pulsed T lymphocytes were harvested 16-18 hours after initial pulse followed by the ^3H thymidine incorporation assessment using a Beckman LS3801 Liquid Scintillation System. […]
A general note: A flow cytometer gives signals particle by particle.

The test system of experiment [2] is STAT1. Kind of experiment: pSTAT1/STAT1 western blotting under Th17 inducing conditions. Format: cell-based, mouse. To be noted: SOCS1+/− CD4+ T cells, SOCS1-KIR peptide (20 μM). The procedure: (§1) FIGS. 5A-5D. […] (FIGS. 5A and 5B) SOCS1^+/+ or SOCS1^+/− CD4^+CD25^− T cells were stimulated with αCD3 antibodies alone or with αCD3+SOCS1-KIR peptide (20 μM) for 72 h. (FIG. 5A) CD25 expressing cells were assessed by flow cytometry. Results are representative of 4 independent experiments. (FIG. 5B) Proliferation was assessed by CFSE labeling and flow cytometry, cell counts, and ^3[H] thymidine incorporation. n=4. (FIGS. 5C and 5D) SOCS1^+/+ or SOCS1^+/− CD4^+CD25^− T cells were placed under Th17 inducing conditions in the absence or presence of SOCS1-KIR peptide (20 μM) (FIG. 5C) IFNγ expression, relative to β-actin., was assessed by qPCR (left) and ELISA (right) (n=4). (FIG. 5D) pSTAT1 and STAT1 protein expressions were assessed by western blotting. Results are representative of 4 independent experiments. Statistical comparisons were performed using Mann-Whitney U test. (*P<0.05). iTh17=Th17 inducing conditions, WT=SOCS1^+/+, and HT=SOCS1^+/−.
MACS purified CD4^+CD25^− T cells were stimulated with anti-CD3 Ab (10 μg/ml), anti-CD3 (10 μg/ml) and anti-CD28 (1.5 μg/ml) Abs, or Th17 inducing conditions in the presence or absence of SOCS1-KIR peptide as previously described. […] Equal quantities of protein were loaded and separated in 4%-12% SDS-PAGE gel (Biorad). […]
Background: Immunoblotting shows a protein as a band on a membrane.

In experiment [3] the test system is EAE. To be noted: administered in vivo; cited from earlier work.
The subject of experiment [4] is SOCS1+/+ or SOCS1+/− CD4+CD25− T cells. The experiment is described as follows: CD4+ T cell proliferation (CFSE labeling, cell counts, 3H thymidine incorporation). Type of experiment: cell-based, mouse. To be noted: αCD3 + SOCS1-KIR peptide (20 μM), 72 h. On the procedure: as §1
CD4^+ T cell proliferation was assessed by CFSE staining, ^3H thymidine incorporation, and absolute cell counts. MACS purified CD4^+CD25^− T cells, isolated from LN and spleen suspension, were stimulated in triplicate (96 well round-bottom plate; 1×10^5 cells/well) with 10 μg/ml anti-CD3 (BD Pharmingen; clone: 145.2C11) alone or in addition to 1.5 μg/ml anti-CD28 (BD Pharmingen; clone 37.51) at 37° C. (5% CO2) in RPMI 1640 (Cellgro; 10-040-CV) containing 10% FBS (INVITROGEN™ GIBCO®), 1% antibiotic/antimycotic (Herndon, Va.), and 50 μM β-ME (MP Biomedicals, Solon, Ohio). After 72 h of incubation, cell cultures were either pulsed with 0.5 mCi ^3H thymidine (GE Healthcare; Arlington Heights, Ill.) or counted and harvested for assessment by flow cytometry. In cultures analyzed by flow cytometry, T lymphocytes were labeled with 10 μg/ml CFSE prior to culture as previously described (Cozzo et al. 2003). ^3H thymidine pulsed T lymphocytes were harvested 16-18 hours after initial pulse followed by the ^3H thymidine incorporation assessment using a Beckman LS3801 Liquid Scintillation System. […]
In general terms: Dividing cells build labelled thymidine or BrdU into new DNA.

On to “DTHFRTFRSHSDYRRI (SOCS1-KIR peptide) [SOCS1 mimetic peptide corresponding to the KIR region of SOCS1]”, for which the “αCD3 mediated CD25 up-regulation” value in experiment [1] (SOCS1+/− CD4+ T lymphocytes) is recorded as “sufficient to inhibit excessive αCD3 mediated CD25 up-regulation”. For the same sequence, the CD25 expression entry in experiment [1] (WT (SOCS1+/+) CD4+ T lymphocytes) is given as “limited effects on CD25 expression”. The “STAT1 activation (phosphorylation)” value in experiment [2] is “drastically reduced the enhanced STAT1 activation”. In addition, the “Immune homeostasis and EAE prevention” value in experiment [3] was “could both regulate immune homeostasis and prevent EAE”. Besides, in experiment [4] (SOCS1+/− cells), the “Activation and proliferation of αCD3 treated SOCS1+/− CD4+ T lymphocytes relative to WT” value is on record as “to levels comparable to WT receiving αCD3 stimulation”. In addition, in experiment [4] (WT and SOCS1+/− T lymphocytes), the “Proliferation by CFSE labeling” value is “reduced proliferation”. Further, the “Absolute cell counts and 3H thymidine incorporation” value in experiment [4] is reported as “inhibition of T lymphocyte proliferation”.

Source of the values: patent publication US11603387B2, “SOCS mimetics for the treatment of diseases” (UNIVERSITY OF FLORIDA RESEARCH FOUNDATION, INC., priority 2014, dated 2023).
